Some test systems named below: CAKI-1 renal; SW-620 colon; SK-MEL-2 melanoma; OVCAR-5 ovarian; BT-549 breast; NCI-H522 lung.
Common to all, as to assay: DTP human tumour cell line panel, 48 h

The structures appear in SMILES notation.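 Tested at 5 concentrations; 48 h exposure; 96-well plates; endpoints linearly interpolated, else capped at highest concentration. The concentration for 50% growth inhibition is given as GI50. TGI is the concentration that stops growth completely.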

In the case of `NC(CSc1nc2ccccn2c1[N+](=O)[O-])C(=O)O` (stereo not given), the TGI with CAKI-1 renal, with SW-620 colon, in the experiment with SK-MEL-2 melanoma, with OVCAR-5 ovarian, with BT-549 breast and with NCI-H522 lung was more than 100 µM in each case.
Take `CCN(C(=O)CCl)C(C)(C)C(SSSC(c1ccc(Cl)cc1)C(C)(C)N(CC)C(=O)CCl)c1ccc(Cl)cc1` (stereo not given): the GI50 with CAKI-1 renal is 4.09 µM; with SW-620 colon it was 3.85 µM; with SK-MEL-2 melanoma, 6.14 µM; in the experiment on OVCAR-5 ovarian it was 13.8 µM; with BT-549 breast it was 10.3 µM; in the experiment with NCI-H522 lung, 2060 nM. The TGI in the experiment with CAKI-1 renal amounted to 15.4 µM; in the experiment on SW-620 colon, 14.6 µM; in the experiment with SK-MEL-2 melanoma it was 18.7 µM; in the experiment with OVCAR-5 ovarian, 27.9 µM; in the experiment on BT-549 breast it was 23 µM; in the experiment with NCI-H522 lung it was 3.87 µM.
Take `CN(C)CCNC(=O)Cn1ccc(=O)c2ccc([N+](=O)[O-])cc21`: the TGI in the experiment with CAKI-1 renal, with SW-620 colon, with SK-MEL-2 melanoma, in the experiment with OVCAR-5 ovarian and in the experiment with NCI-H522 lung was more than 100 µM in each case.
Regarding `COc1ccc(-c2cc(-c3cn[nH]c3-c3ccccn3)ccn2)cc1`, the GI50 in the experiment on CAKI-1 renal was more than 25 µM; in the experiment on SW-620 colon, more than 25 µM; with SK-MEL-2 melanoma, more than 25 µM; with OVCAR-5 ovarian, more than 25 µM; in the experiment with BT-549 breast, more than 25 µM; in the experiment on NCI-H522 lung it was more than 25000 nM. Also, the TGI in the experiment with CAKI-1 renal, in the experiment with SW-620 colon, with SK-MEL-2 melanoma, in the experiment with OVCAR-5 ovarian, in the experiment on BT-549 breast and in the experiment with NCI-H522 lung was more than 25 µM throughout.
Regarding `Nc1c(C(=O)c2cccc(CCC3(O)CCCC3)c2)cnn1-c1ccc(F)cc1`, the GI50 in the experiment with CAKI-1 renal was more than 25 µM; in the experiment with SW-620 colon, more than 20.7 µM; with SK-MEL-2 melanoma it was more than 25 µM; in the experiment on OVCAR-5 ovarian, more than 25 µM; in the experiment with BT-549 breast it was 9.75 µM; in the experiment with NCI-H522 lung, more than 19400 nM. Further, the TGI in the experiment on CAKI-1 renal, with SW-620 colon, with SK-MEL-2 melanoma, in the experiment with OVCAR-5 ovarian, with BT-549 breast and with NCI-H522 lung was more than 25 µM throughout.
Turning to `C[C@]12CCC3c4ccc(O)cc4CCC3C1Cc1ccc(O)cc12` (stereo not given in full), the GI50 was 10.8 µM in the experiment on CAKI-1 renal; 3.7 µM in the experiment on SW-620 colon; 11 µM with SK-MEL-2 melanoma; 14.5 µM in the experiment on OVCAR-5 ovarian; 6.57 µM in the experiment with BT-549 breast; 3500 nM in the experiment on NCI-H522 lung. Besides, the TGI in the experiment on CAKI-1 renal was 45.6 µM; in the experiment with SW-620 colon it was 14.9 µM; in the experiment on SK-MEL-2 melanoma, 26.3 µM; with OVCAR-5 ovarian, 27.6 µM; in the experiment with BT-549 breast it was 23.4 µM; with NCI-H522 lung, 12.8 µM.
On to `O=C(NC(=S)NNC(=S)NNc1ccccc1)c1ccccc1`, for which the GI50 with CAKI-1 renal was 4.75 µM; in the experiment with SW-620 colon it was 4.09 µM; in the experiment with SK-MEL-2 melanoma, 4.11 µM; in the experiment with OVCAR-5 ovarian, more than 100 µM; with BT-549 breast, 11.3 µM; in the experiment on NCI-H522 lung, 489 nM. The TGI in the experiment with CAKI-1 renal is more than 100 µM; with SW-620 colon it was more than 100 µM; in the experiment with SK-MEL-2 melanoma it was more than 100 µM; in the experiment on OVCAR-5 ovarian it was more than 100 µM; with BT-549 breast it was more than 100 µM; with NCI-H522 lung, 3.42 µM.
Turning to `CO[C@H]1C[C@@H]2CC[C@@H](C)[C@@](O)(O2)C(=O)C(=O)N2CCCC[C@H]2C(=O)O[C@H]([C@H](C)C[C@@H]2CC[C@@H](OP(C)(C)=O)[C@H](OC)C2)CC(=O)[C@H](C)/C=C(\C)[C@@H](O)[C@@H](OC)C(=O)[C@H](C)C[C@H](C)/C=C/C=C/C=C/1C`, the GI50 is 10.8 µM with CAKI-1 renal; 12.1 µM with SW-620 colon; 2.31 µM in the experiment on SK-MEL-2 melanoma; 11.4 µM in the experiment on OVCAR-5 ovarian; less than 0.0131 µM with BT-549 breast. Also, the TGI was determined as 25.9 µM in the experiment on CAKI-1 renal; 27.9 µM with SW-620 colon; 22.4 µM in the experiment with SK-MEL-2 melanoma; 27.6 µM with OVCAR-5 ovarian; 18.6 µM in the experiment with BT-549 breast; 19.9 µM with NCI-H522 lung.
Consider `Cc1ccc(N=Nc2c(N)nn(-c3ccccc3)c2N)cc1`, for which the GI50 in the experiment with CAKI-1 renal is 1.28 µM; with SW-620 colon it was 0.493 µM; in the experiment with SK-MEL-2 melanoma, 0.464 µM; in the experiment with BT-549 breast it was 0.737 µM; in the experiment on NCI-H522 lung, 1000 nM. For the same molecule, the TGI with CAKI-1 renal is more than 23.1 µM; with SW-620 colon, more than 100 µM; in the experiment on BT-549 breast it was more than 100 µM; in the experiment on NCI-H522 lung it was more than 100 µM.
On to `O=C1OC(C2=CC(=O)c3ccccc3C2=O)C(Cl)=C1Cl` (stereo not given), for which the TGI with CAKI-1 renal is more than 100 µM; with SW-620 colon it was 94.1 µM; with SK-MEL-2 melanoma it was 35.4 µM; with OVCAR-5 ovarian, more than 100 µM; in the experiment with NCI-H522 lung, 39.3 µM.
Turning to `O=C(OCC1OC(OC(=O)c2cc(O)c(O)c(OC(=O)c3cc(O)c(O)c(O)c3)c2)C(OC(=O)c2cc(O)c(O)c(OC(=O)c3cc(O)c(O)c(O)c3)c2)C(OC(=O)c2cc(O)c(O)c(OC(=O)c3cc(O)c(O)c(O)c3)c2)C1OC(=O)c1cc(O)c(O)c(OC(=O)c2cc(O)c(O)c(O)c2)c1)c1cc(O)c(O)c(OC(=O)c2cc(O)c(O)c(O)c2)c1` (stereo not given), the GI50 in the experiment on CAKI-1 renal was 9.63 µM; in the experiment with SW-620 colon, 21.6 µM; with SK-MEL-2 melanoma, 20.6 µM; in the experiment on BT-549 breast, 12.1 µM; in the experiment with NCI-H522 lung, 8710 nM. Besides, the TGI with CAKI-1 renal was 47.5 µM; in the experiment on SW-620 colon, more than 50 µM; with SK-MEL-2 melanoma, more than 50 µM; in the experiment on BT-549 breast, 35.9 µM; in the experiment with NCI-H522 lung, 29.7 µM.
In the case of `C#C[C@@]1(O)[C@@H](CO)O[C@@H](n2ccc3c(N)ncnc32)[C@@H]1O`, the GI50 with SW-620 colon is 0.493 µM; in the experiment with SK-MEL-2 melanoma, 1.37 µM; in the experiment with OVCAR-5 ovarian, 3.1 µM; with BT-549 breast, 1.63 µM; in the experiment with NCI-H522 lung, 370 nM. Also, the total growth inhibition concentration (TGI) in the experiment on SW-620 colon came out at 12.7 µM; in the experiment on SK-MEL-2 melanoma, 6.32 µM; in the experiment on OVCAR-5 ovarian it was 8.54 µM; with BT-549 breast, 3.64 µM; in the experiment on NCI-H522 lung, 3.82 µM.
Consider `O=C1c2cc3c(cc2[C@@H]2[C@H]1c1ccc([N+](=O)[O-])cc1C(=O)N2CCCCl)OCO3`, for which the GI50 in the experiment with CAKI-1 renal is less than 0.01 µM; in the experiment with SW-620 colon it was less than 0.01 µM; in the experiment with SK-MEL-2 melanoma, 0.0827 µM; with OVCAR-5 ovarian, less than 0.0144 µM; in the experiment on NCI-H522 lung, less than 10 nM. Also, the TGI was less than 0.01 µM in the experiment with CAKI-1 renal, more than 100 µM in the experiment on SW-620 colon, more than 100 µM in the experiment on SK-MEL-2 melanoma and 9.64 µM in the experiment with NCI-H522 lung.

For orientation: TGI means the concentration giving total growth inhibition. By GI50 is commonly meant the concentration at which growth is held to half of that of the control.

Values taken from PubChem BioAssay (NCI).
